According to ChEMBL document CHEMBL1201862, “PubChem BioAssay data set” (2004):
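Growth conditions: 96-well plates. Treatment: test compound, 48 hours, 5 concentrations. Analysis: linear interpolation between bracketing concentrations; unreached endpoints set to highest concentration. GI50 is the concentration that inhibits growth by half.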 Active and inactive are the calls of the source. Rule as the data show it: active = GI50 up to about 1.1 µM and inactive = higher.

Key:
Experiment in all cases: inhibition of tumour cell growth, NCI panel, 48 h
CCRF-CEM = tested on: CCRF-CEM
MDA-N = tested on: MDA-N
HCT-116 = tested on: HCT-116
U-251 = tested on: U-251
LOX IMVI = tested on: LOX IMVI
HCC 2998 = tested on: HCC 2998
SF-295 = tested on: SF-295
NCI/ADR-RES = tested on: NCI/ADR-RES
SK-MEL-5 = tested on: SK-MEL-5
UO-31 = tested on: UO-31
SF-539 = tested on: SF-539
SF-268 = tested on: SF-268
NCI-H23 = tested on: NCI-H23
Hs-578T = tested on: Hs-578T
KM12 = tested on: KM12
SW-620 = tested on: SW-620
UACC-62 = tested on: UACC-62
NCI-H522 = tested on: NCI-H522
SN12C = tested on: SN12C
SNB-19 = tested on: SNB-19

Row | Structure (SMILES) | GI50 (CCRF-CEM) | GI50 (MDA-N) | GI50 (HCT-116) | GI50 (U-251) | GI50 (LOX IMVI) | GI50 (HCC 2998) | GI50 (SF-295) | GI50 (NCI/ADR-RES) | GI50 (SK-MEL-5) | GI50 (UO-31) | GI50 (SF-539) | GI50 (SF-268) | GI50 (NCI-H23) | GI50 (Hs-578T) | GI50 (KM12) | GI50 (SW-620) | GI50 (UACC-62) | GI50 (NCI-H522) | GI50 (SN12C) | GI50 (SNB-19)
1 | O=C1C2CC[C@@H]3C(=O)C(Cl)(Cl)[C@@H]3CCC2C1(Cl)Cl (stereo not given in full) | 23.3 µM (inactive) | > 72.4 µM (inactive) | > 86.5 µM (inactive) | > 100 µM (inactive) | 44 µM (inactive) | > 100 µM (inactive) | > 100 µM (inactive) | > 100 µM (inactive) | > 100 µM (inactive) | > 100 µM (inactive) | > 44.4 µM (inactive) | > 100 µM (inactive) | > 100 µM (inactive) | > 100 µM (inactive) | > 100 µM (inactive) | > 100 µM (inactive) | > 86.9 µM (inactive) | > 58.7 µM (inactive) | > 100 µM (inactive) | > 100 µM (inactive)
2 | O=[N+]([O-])C(/C(Cl)=C(\Cl)Br)=C(/Cl)SCc1ccccc1 | 0.507 µM (active) | 1.85 µM (inactive) | 2.48 µM (inactive) | 6.46 µM (inactive) | 1.86 µM (inactive) | 11.2 µM (inactive) | 16.9 µM (inactive) | 2.77 µM (inactive) | 2.9 µM (inactive) | 2.52 µM (inactive) | 8.83 µM (inactive) | 2.85 µM (inactive) | 5.71 µM (inactive) | 5.11 µM (inactive) | 14.4 µM (inactive) | 2.03 µM (inactive) | 3.2 µM (inactive) | 1.89 µM (inactive) | 3.31 µM (inactive) | 17.8 µM (inactive)
3 | O=C(Nc1ccc(Cl)cc1)C(=O)C1=C(O)c2ccccc2OC1 | > 100 µM (inactive) | > 100 µM (inactive) | > 100 µM (inactive) | > 100 µM (inactive) | > 100 µM (inactive) | > 100 µM (inactive) | > 100 µM (inactive) | > 100 µM (inactive) | > 100 µM (inactive) | > 100 µM (inactive) | > 100 µM (inactive) | > 100 µM (inactive) | > 100 µM (inactive) | > 100 µM (inactive) | 80.5 µM (inactive) | > 100 µM (inactive) | > 100 µM (inactive) | > 100 µM (inactive) | > 100 µM (inactive) | > 100 µM (inactive)
4 | O=C(c1ccccc1)N1CCN(C(=S)N(C(=O)c2ccccc2)c2ccccc2)C1=S | 2.56 µM (inactive) | 4.18 µM (inactive) | 3.4 µM (inactive) | 6.79 µM (inactive) | 1.9 µM (inactive) | 6.5 µM (inactive) | 12.6 µM (inactive) | 5.16 µM (inactive) | 13.5 µM (inactive) | 2.56 µM (inactive) | 2.62 µM (inactive) | 3.45 µM (inactive) | 3.05 µM (inactive) | 3.1 µM (inactive) | 5.71 µM (inactive) | 3.31 µM (inactive) | 3.76 µM (inactive) | 1.87 µM (inactive) | 3.18 µM (inactive) | 13.3 µM (inactive)
5 | Nc1nn2c(C(Br)Br)cc(C(Br)Br)nc2c1[N+](=O)[O-] | 0.161 µM (active) | 1.34 µM (inactive) | 0.634 µM (active) | 0.668 µM (active) | 0.269 µM (active) | 2.17 µM (inactive) | 1.77 µM (inactive) | 2.78 µM (inactive) | 1.49 µM (inactive) | 1.25 µM (inactive) | 0.785 µM (active) | 1.88 µM (inactive) | 1.98 µM (inactive) | 2.36 µM (inactive) | 1.32 µM (inactive) | 0.244 µM (active) | 1.81 µM (inactive) | 0.37 µM (active) | 1.6 µM (inactive) | 1.61 µM (inactive)
6 | CC1(N2CCOCC2)CC2C(=[N+]1[O-])CCC/C2=N/O (stereo not given) | > 100 µM (inactive) | > 100 µM (inactive) | > 100 µM (inactive) | > 100 µM (inactive) | > 100 µM (inactive) | > 100 µM (inactive) | > 100 µM (inactive) | > 100 µM (inactive) | > 100 µM (inactive) | > 100 µM (inactive) | > 100 µM (inactive) | > 100 µM (inactive) | > 100 µM (inactive) | > 100 µM (inactive) | > 100 µM (inactive) | > 100 µM (inactive) | > 100 µM (inactive) | > 100 µM (inactive) | > 100 µM (inactive) | > 100 µM (inactive)
7 | CCN(CC)COC(=S)S | 0.0162 µM (active) | > 63.2 µM (inactive) | 40.4 µM (inactive) | 30.3 µM (inactive) | 41.8 µM (inactive) | > 49.9 µM (inactive) | > 77.6 µM (inactive) | > 88.1 µM (inactive) | 21.6 µM (inactive) | 62.5 µM (inactive) | 90.6 µM (inactive) | > 78 µM (inactive) | > 100 µM (inactive) | > 100 µM (inactive) | > 76.2 µM (inactive) | 24.2 µM (inactive) | > 83 µM (inactive) | 3.61 µM (inactive) | > 100 µM (inactive) | > 100 µM (inactive)
